Measured values reported in patent US7582786B2, “Synthetic catalytic free radical scavengers useful as antioxidants for prevention and therapy of disease” (Eukarion Inc., priority 1996, dated 2009).

How the values were obtained:
[1] = system: Human dermal fibroblasts (HF cells); experiment: Cell protection assay, tert-butylhydroperoxide (t-BHP) toxicity, XTT; format: cell-based; details: for Cell viability, absorbance at 490 nm uncorrected for blank: t-BHP 0.5 mM
Protocol: (§1) Human dermal fibroblasts (HF cells) were obtained from the American type tissue Culture Collection at passage 1 and cultured and propagated in a medium (HF medium) consisting of Dulbecco's Modified Eagle's Medium with 4.5 g/l D-glucose, 10% calf serum 4 mM glutamine, 50 units/ml penicillin, and 50 μg/ml streptomycin in a 37° C. humidified incubator equilibrated with 5% CO2. Cells were used at passages 5 or 6 for experiments. For cell protection assays, HF cells were seeded at a density of about 15,000 cells per cm2 onto 96-well culture plates and allowed to grow to confluence. To assess protection tert-butylhydroperoxide (t-BHP) toxicity, confluent cell layers were first treated with the indicated concentrations of test compounds dissolved in HF medium for 18 hr. The medium was then replaced with fresh medium containing test compounds and 0.5 mM tert-butylhydroperoxide (t-BHP) and cells were incubated for another 18 hr. The medium was then removed and replaced with fresh HF medium (100 μl per well) without test compounds or t-BHP. Fifty μl of XTT reagent (Boeringer Mannheim, Inc.), prepared as described by the manufacturer, was then added to each well and the plates returned to the incubator. After 2 hr., the absorbance at 490 nm was measured in a BioRad (Richmond, Calif.) Model 3550 plate-reader, using a reference wavelength of 655 nm. Control cells that had not been exposed to test compounds or toxic agents were included among the samples treated with XTT reagent. Absorbance measurements for blank wells, containing HF medium and XTT reagent but no cells, were also determined. To analyze protection from glucose/glucose oxidase toxicity, confluent cell layers were incubated with HF medium containing glucose oxidase (0.019 units/ml) along with test compounds, as indicated, for 18 hr in the tissue culture incubator. Fresh HF medium was then added and cell viability assessed using the XTT reagent as described above. For both these models, concentrations of toxic agents were selected that were reproducibly completely lethal. Cytotoxicity assessments were routinely confirmed by visual inspection of the cell layers prior to addition of the XTT reagent.

[2] = system: Human dermal fibroblasts (HF cells); experiment: Cell protection assay, glucose/glucose oxidase toxicity, XTT; format: cell-based
Protocol: as §1
(§2) Catalase and peroxidase activities were assayed as described in Example 2. Catalase assays contained 10 μM salen-manganese complex and 10 mM hydrogen peroxide. Peroxidase assays contained 10 μM salen-manganese complex and 0.2 mM hydrogen peroxide. Glucose-glucose oxidase toxicity assays were performed using human dermal fibroblasts as described in Example 2.

[3] = SOD activity, xanthine/xanthine oxidase with cytochrome C as acceptor (Example 2); format: biochemical; details: relative to C7 (C7 = 100)
Protocol: Superoxide dismutase (SOD) activity was assayed by following the inhibition of the reduction of an electron acceptor molecule in the presence of the free-radical generating system xanthine/xanthine oxidase (McCord et al. (1973) Superoxide and Superoxide Dismutase in “Oxidases and Related Redox Systems, vol. I, King et al. eds., University Park press, Baltimore, pp. 51-76). The assay mixture consisted of 50 mM sodium phosphate, pH 7.8, 120 μM xanthine, 0.2 units/ml xanthine oxidase, with acceptor molecule and salen manganese compound, as indicated. Assays were conducted at 27±0.2° C. using a water-jacketed cell holder in a Beckman DU7400 spectrophotometer. In most cases, oxidized cytochrome c, at 0.13 mg/ml, was employed as acceptor and its reduction was monitored spectrophotometrically at 550 nm. In some experiments, nitroblue tetrazolium (NBT), at 80 μM, was substituted for cytochrome c as the acceptor. NBT reduction was also monitored at 550 nm. An estimated extinction coefficient for NBT reduction, 20,800 M^−1cm^−1, determined empirically by exhaustive reduction of NBT in the reaction mixture described above, was employed where indicated. […] Conversion of xanthine to urate was calculated using ε290's of […] for urate and 4050 M^−1cm^−1 for xanthine. […] For each compound, at least four different concentrations were tested in duplicate.

[4] = Catalase activity, conversion of H2O2 to oxygen, polarographic oxygen electrode (Example 2); format: biochemical
Protocol: Catalase activity was assayed by monitoring the conversion of H2O2 to oxygen using a Clark-type polarographic oxygen electrode. The apparatus consisted of a Mini Clark Style electrode, a 600 μl Oxygen Uptake Chamber, and a Chemical Microsensor system, all obtained from Diamond General Corporation (Ann Arbor, Mich.). The electrode was calibrated by immersion in nitrogen- or air-equilibrated buffers using a Dual Chamber Calibration Cell (Diamond General,. Corp.). Catalase reaction mixtures consisted of 50 mM sodium phosphate, pH 8.1, 0.9% sodium chloride, and salen manganese complex and H2O2 at the indicated concentrations. The temperature of the water-jacketed reaction chamber, as well as the calibration buffers, was maintained at 25±0.1° C. Data were collected at 1 sec intervals and stored-on a MacIntosh II computer using data acquisition hardware and software by Strawberry Tree, Inc. (Sunnyvale, Calif.). Dissolved oxygen concentrations were calculated as described previously (Del Rio et al. (1977) Anal. Biochem. 80: 409) based on a value of 2.5×10^−4 M oxygen for air-saturated buffer at 25° C. Linearity of the dissolved oxygen measurements within the experimental range was continued by determining the amount of oxygen generated from known quantities of H2O2 during exhaustive treatment with bovine liver catalase. Stock solutions of H2O2 were prepared by diluting a commercial 30% H2O2 solution in water and the H2O2 concentrations in these stocks were determined by absorbance at 240 nm, using a molar extinction coefficient of 44 (Stadtman, E R. et al. (1990) Proc. Natl. Acad. Sci. USA 87: 384). […] In the absence of salen manganese complex, H2O2 alone typically produced an early, relatively slow increase in signal. The slope of this increased signal was not proportional to H2O2 concentration (for example in one experiment, 1 and 10 Mm H2O2 yielded apparent rates of 12 and 14 μM oxygen per min, respectively) and may be due to an electrode artifact. […] Where presented, initial rates were calculated by determining the slope of the linear portion of time dependent plots of oxygen generation, usually comprising the first five seconds of the reaction. Unless otherwise indicated, these were corrected by subtracting the rate obtained with H2O2 alone. Where presented, endpoint oxygen generated was calculated from time-dependent plots, such as those shown in FIG. 14, as the difference between the baseline oxygen concentration immediately prior to substrate addition and the maximal oxygen concentration achieved during the course of the reaction. All reactions subjected to these calculations were run for a sufficient time to ensure that oxygen generation had ceased.
as §2

[5] = Peroxidase activity, H2O2-dependent oxidation of ABTS (Example 2); format: biochemical; details: for Peroxidase rate: 10 μM salen manganese complex, 0.2 mM H2O2; for Peroxidase: relative to C7 (C7 = 100)
Protocol: (§3) Peroxidase activity was assayed by monitoring the hydrogen peroxide-dependent oxidation of 2,2′-azino-bis(3-ethylbenzthiazoline-6) sulfonic acid (ABTS) spectrophotometrically. Standard assay mixtures consisted of 50 mM sodium phosphate, pH 8.1, 0.9% sodium chloride, 0.5 mM ABTS, and H2O2 and salen manganese complex as indicated. Where indicated, 50 mM sodium phosphate buffers of pH 6.0 or pH 7.1 were substituted. Assays were conducted at 27±0.2° C. ABTS oxidation was monitored at 740 or 500 nm to eliminate interference by the salen manganese complexes, many of which absorb in the vicinity of the λmax of oxidized ABTS, and to avoid absorbance values that exceeded the linear range of the spectrophotometer. The amount of oxidized ABTS was estimated using an Δε740 of 20,300 M^−1cm^−1 or an Δε500 of 3400 M^−1cm^−1 calculated based upon the published molar extinction coefficient oat 405 nm (36,800).
as §2

[6] = system: brain homogenates; experiment: Iron-induced lipid peroxidation in brain homogenates (MDA); format: biochemical, rat
Protocol: Lipid peroxidation was induced by incubating a mixture consisting of 0.25 ml homogenate, 0.25 ml ASCF with test compounds, and 10 μM FeCl2 for 1 hr at 35° C. under an atmosphere equilibrated with O2:CO2(95:5). Following the incubation, 0.1 ml of the sample was extracted with trichloroacetic acid and analyzed for thiobarbituric acid reactive material as described previously, using authentic malonyldialdehyde (MDA) as a standard.

[7] = Peroxidase activity with t-BHP as substrate, ABTS oxidation; format: biochemical; details: 1 mM t-BHP
Protocol: as §3
(In comparison, horseradish peroxidase utilized t-BHP with an ABTS oxidation rate that was about 5.4% of the rate with H2O2).

[8] = 10 μM salen manganese complex, 10 mM H2O2

Compound | Cell viability, absorbance at 490 nm uncorrected for blank ([1]; 2.5 μM) | Cell viability, absorbance at 490 nm uncorrected for blank ([1]; 5 μM) | Cell viability, absorbance at 490 nm uncorrected for blank ([1]; 10 μM) | Cell viability, absorbance at 490 nm uncorrected for blank ([1]; 20 μM) | Cell viability, absorbance at 490 nm uncorrected for blank ([1]; 40 μM) | Cell viability, absorbance at 490 nm uncorrected for blank ([1]; 80 μM) | protection against glucose and glucose oxidase (in words) [2] | SOD [3] | Catalase rate [4, 8] [μM O2/min] | Endpoint [4, 8] [maximal μM O2] | Catalase endpt. ([4]; relative to C7 (C7 = 100)) | Catalase rate ([4]; relative to C7 (C7 = 100)) | Peroxidase rate [5] [μM ABTS oxidized/min] | Peroxidase [5] | MDA levels, percent of control ([6]; 1 μM) [%] | MDA levels, percent of control ([6]; 5 μM) [%] | MDA levels, percent of control ([6]; 10 μM) [%] | MDA levels, percent of control ([6]; 25 μM) [%] | also measured
CC(=O)[O][Mn]1[O]c2ccccc2C=NCCN=Cc2ccccc2[O]1 [Compound C31] | 0.28 ± 0.01 | 1.25 ± 0.09 | 1.41 ± 0.08 | 1.40 ± 0.06 | 1.30 ± 0.03 | 1.16 ± 0.09 | about equally as effective as C7 | 101 | 131.9 ± 12.9 | 29.6 ± 0.5 | 81 | 92 | 21.3 ± 0.5 | 114 | 108 | 22 | 6 | 0 | synergistic toxicity with t-BHP ([1]; 80 μM): possible synergistic toxicity
COc1ccc2c(c1)[O][Mn]([O]C(C)=O)[O]c1cc(OC)ccc1C=NCCN=C2 [Compound C33] | 0.27 ± 0.01 | 0.27 ± 0.01 | 1.35 ± 0.08 | 1.44 ± 0.08 | 1.50 ± 0.11 | 1.36 ± 0.02 | about equally as effective as C7 | 68 | 53.9 ± 8.7 | 12.6 ± 1.3 | 44 | 38 | 0.8 ± 0.2 | 4 | 98 | 38 | 16 | 7 | 
COc1ccc2c(c1)[O][Mn]([Cl])[O]c1cc(OC)ccc1C=NCCN=C2 [Compound C34] | 0.27 ± 0.01 | 0.27 ± 0.01 | 1.20 ± 0.12 | 1.46 ± 0.08 | 1.48 ± 0.08 | 1.54 ± 0.08 | about equally as effective as C7 | 70 | 66.4 ± 13.9 | 11.9 ± 0.2 | 44 | 46 | 0.8 ± 0.2 | 4 | 97 | 30 | 12 | 6 | 
COc1ccc2c(c1)C=NCCN=Cc1cc(OC)ccc1[O][Mn]([Cl])[O]2 [Compound C41] | 0.28 ± 0.01 | 0.28 ± 0.01 | 1.37 ± 0.01 | 1.44 ± 0.04 | 1.35 ± 0.06 | 1.07 ± 0.03 |  | 114 | 172.2 ± 2.2 | 83.5 ± 0.9 | 311 | 120 | 23.4 ± 2.6 | 136 |  |  |  |  | toxicity of compound alone ([1]; 80 μM, without t-BHP): equivalent toxicity with or without t-BHP; protection against glucose and glucose oxidase ([2]; 80 μM, glucose oxidase 0.019 units/ml): highly protective; turnovers before the catalase reaction ceased ([4]; 10 μM complex, 10 mM H2O2): about 16 turnovers
horseradish peroxidase |  |  |  |  |  |  |  |  |  |  |  |  |  |  |  |  |  |  | ABTS oxidation rate with t-BHP, percent of rate with H2O2 [7]: about 5.4%; rate of ABTS oxidation ([5]; 13.2 units/ml, pH 8.1, 1 mM H2O2): 99.3 µM/min
